Results reported in PubChem BioAssay AID2060496 (Molecular Pharmacology Branch, DTP, NCI, 2025).
“And” between values parts separate entries of the source, which are not always exact repeats. Equal entries are not always repeated. One block for each compound: values may come before it.

Tested on: 276233-004-R-J1-PDC complex spheroid viability
Experiment: Anticancer human tumor 276233-004-R-J1-PDC patient-derived colon adenocarcinoma cell line growth inhibition [GQUAD]
Conditions: for viability, T/C: stronger effect = lower value
Excerpt: DNA G-quadruplex Stabilizer Agents in Combinations in Complex Spheroids
A high-throughput screen of multi-cell type tumor spheroids was designed to identify active combinations of DNA G-quadruplex stabilizer agents and targeted small molecules. Complex spheroids include a stromal component modeled by human endothelial cells (HUVEC) and fibroblasts modeled by human mesenchymal stem cells (MSCs). The concentration ranges selected for each drug and investigational agent were based upon clinically achievable concentrations if the clinical Cmax of the agent was known.
Compounds. The drugs and investigational agents: pidnarulex (CX-5461; NSC782164), APTO-253 (NSC789042), BRACO-19 (NSC847499), peposertib (NSC802822), ceralasertib (NSC780249), elimusertib (NSC800525), camonsertib (NSC841442), AZD-1390 (NSC803789), olaparib (NSC753686), talazoparib (NSC767125), ART-558 (NSC835418), sotorasib (NSC818433), MRTX-1133 (NSC836407), SN-38 (NSC673596), topotecan (NSC609699), etoposide (NSC141540), doxorubicin (NSC123127), gemcitabine (NSC613327), 5-fluorouracil (NSC19893), paclitaxel (NSC125973), vemurafenib (NSC761431), panobinostat (NSC761190), R-306465 (JNJ-16241199; NSC773264), adavosertib (NSC754352), TP-3654 (NSC805149), carboplatin (NSC241240), KSQ-4279 (NSC840948), and staurosporine (NSC755774) were obtained from the National Cancer Institute (NCI) Developmental Therapeutics Program Chemical Repository (34). The FDA-approved anticancer drug set is available from the NCI Developmental Therapeutics Program. […] The stock solutions were prepared in dimethyl sulfoxide (DMSO, Sigma-Aldrich, St. Louis, MO, cat. D2650) at 800-fold the tested concentration and stored at -70 degrees C prior to their use. All drugs and investigational agents were tested over a range starting from a high concentration at or near the clinical Cmax and decreasing in half-log increments. If the clinical Cmax for an agent had not been determined, the highest concentration tested was 10 microM.
2.3 Cell Culture. All cells were maintained in an incubator at 37 degrees C and 5% CO2 with 95% humidity. The PDC lines were cultured according to standard operating procedures established by the NCI PDMR. All PDCs were thawed and cultured in Matrigel-coated flasks prepared with a working solution of 1X Ham's F-12 nutrient mix, without supplementation (Invitrogen, cat. 11765054), 100 U/mL penicillin-streptomycin (Invitrogen, cat. 15140122), and 2.5% Matrigel (Corning Inc., cat. 354248) for the first three passages. The 857933-349-R-J2-PDC line was cultured in 6C/Colon 1B media, which includes advanced DMEM/F-12 (Thermo Fisher Scientific, cat. 12634028), 10 mM HEPES (Thermo Fisher Scientific, cat. 15630080), 1X GlutaMAX supplement (Thermo Fisher Scientific, cat. 35050061), 0.1 mg/mL primocin (InvivoGen, cat. ant-pm-2), 10% defined fetal bovine serum, heat inactivated (HyClone Laboratories Inc., cat. SH30070.03HI), 50% L-WRN conditioned media (ATCC, cat. CRL-3276), 1.25 mM N-Acetyl-L-cysteine (Sigma-Aldrich, cat. A9165), 10 mM nicotinamide (Sigma-Aldrich, cat. N0636), 1X B-27 supplement (Thermo Fisher Scientific, cat. 17504044), 1X N-2 supplement (Thermo Fisher Scientific, cat. 17502048), 10 microM Y-27632 dihydrochloride (Tocris Bioscience, cat. 1254), and 50 ng/mL human EGF recombinant protein (Thermo Fisher Scientific, cat. PHG0311). The 485176-168-R4-J1-PDC line was cultured in Panc media, which includes all 6C/Colon 1B media components plus 100 ng/mL human FGF-10 (Thermo Fisher Scientific, cat. 100-26), 500 nM SB-431542 (Selleckchem, cat. S1067), and gastrin (Tocris, cat. 3006).
[…]
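Further: spheroids exposed to drugs for seven days.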
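Wherever viability, T/C is given: 100% = DMSO vehicle control viability.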

Structure (SMILES): C#Cc1c(F)ccc2cc(O)cc(-c3ncc4c(N5CC6CCC(C5)N6)nc(OCC56CCCN5CC(F)C6)nc4c3F)c12 (centres undefined)
viability, T/C (compound 0.0316 µM): 92.7% and 70.8% and 78.7% | viability, T/C (compound 0.1 µM): 73.1% and 96.4% and 89.9% | viability, T/C (compound 0.316 µM): 66.8% and 78.3% and 71.8% | viability, T/C (compound 1 µM): 87.9% and 83.5% and 69.9% | viability, T/C (compound 3.16 µM): 86.9% and 49.7% and 45.9% | viability, T/C (compound 10 µM): 68.2% and 36.4% and 44.5% | IC50 (curve of compound): > 10 µM and 3.14 µM and 2.93 µM

Structure (SMILES): C=CCn1c(=O)c2cnc(Nc3ccc(N4CCN(C)CC4)cc3)nc2n1-c1cccc(C(C)(C)O)n1
viability, T/C (compound 0.0316 µM): 108% and 106% and 77.9% | viability, T/C (compound 0.1 µM): 92.1% and 90.6% and 74.1% | viability, T/C (compound 0.316 µM): 70.8% and 73.3% and 90.3% | viability, T/C (compound 1 µM): 63.5% and 69.4% and 61.4% | viability, T/C (compound 3.16 µM): 73.4% and 78.4% and 80.3% | viability, T/C (compound 10 µM): 65.8% and 87.4% and 92.2% | IC50 (curve of compound): > 10 µM

Structure (SMILES): CC(=O)O[C@H]1C(=O)[C@@]2(C)[C@H]([C@H](OC(=O)c3ccccc3)[C@]3(O)C[C@H](OC(=O)[C@H](O)[C@@H](NC(=O)c4ccccc4)c4ccccc4)C(C)=C1C3(C)C)[C@]1(OC(C)=O)CO[C@@H]1C[C@@H]2O
viability, T/C (compound 0.0316 µM): 84.1% and 80.2% and 104% | viability, T/C (compound 0.1 µM): 96.1% and 82.8% and 71.2% | viability, T/C (compound 0.316 µM): 82.9% and 80.8% and 85.8% | viability, T/C (compound 1 µM): 87.2% and 95.1% and 88.6% | viability, T/C (compound 3.16 µM): 99.2% and 101% and 86.8% | viability, T/C (compound 10 µM): 76.9% and 80.1% and 86.2% | IC50 (curve of compound): > 10 µM

Structure (SMILES): CC(C)n1c(=O)n(C)c2cnc3cc(F)c(-c4ccc(OCCCN5CCCCC5)nc4)cc3c21
viability, T/C (compound 0.0316 µM): 91.9% and 80.4% and 93.2% | viability, T/C (compound 0.1 µM): 86.8% and 101% and 78.8% | viability, T/C (compound 0.316 µM): 107% and 86.6% and 73.3% | viability, T/C (compound 1 µM): 99.4% and 85.9% and 73.2% | viability, T/C (compound 3.16 µM): 108% and 84.9% and 95.3% | viability, T/C (compound 10 µM): 86.9% and 68.8% and 77% | IC50 (curve of compound): > 10 µM

Structure (SMILES): CC1COCCN1c1cc(C2(O)CC3CCC(C2)O3)c2cnn(-c3ccn[nH]3)c2n1 (centres undefined)
viability, T/C (compound 0.0316 µM): 98% and 89.3% and 74.2% | viability, T/C (compound 0.1 µM): 74.3% and 88.6% and 73.8% | viability, T/C (compound 0.316 µM): 65.7% and 71% and 68.6% | viability, T/C (compound 1 µM): 59.9% and 61.2% and 68.8% | viability, T/C (compound 3.16 µM): 56.3% and 54.3% and 63.9% | viability, T/C (compound 10 µM): 41.6% and 47.4% and 45.6% | IC50 (curve of compound): 3.92 µM and 6.86 µM and 7.56 µM

Structure (SMILES): CC[C@@]1(O)C(=O)OCc2c1cc1n(c2=O)Cc2cc3c(CN(C)C)c(O)ccc3nc2-1
viability, T/C (compound 0.000999 µM): 102% and 92.8% and 107% | viability, T/C (compound 0.00316 µM): 95.6% and 106% and 94.4% | viability, T/C (compound 0.00999 µM): 89.3% and 96.7% and 96.9% | viability, T/C (compound 0.0316 µM): 97.6% and 112% and 79.8% | viability, T/C (compound 0.0999 µM): 97.6% and 102% and 99.8% | viability, T/C (compound 0.316 µM): 90.9% and 107% and 98.6% | IC50 (curve of compound): > 0.316 µM

Structure (SMILES): CN(C)c1ccc(Nc2c3ccc(NC(=O)CCN4CCCC4)cc3nc3cc(NC(=O)CCN4CCCC4)ccc23)cc1
viability, T/C (compound 0.316 µM): 65% [middle of 12 runs] | viability, T/C (compound 1 µM): 64.4% [middle of 12 runs] | viability, T/C (compound 3.16 µM): 61.7% [middle of 12 runs] | viability, T/C (compound 10 µM): 49.8% [middle of 12 runs] | IC50 (compound alone, run of 02/26/2024): > 10 µM and 4.02 µM and 5.57 µM

Now from value to compound, other results behind:

IC50 (curve of compound): > 10 µM
Structure (SMILES): C=CC(=O)N1CCN(c2nc(=O)n(-c3c(C)ccnc3C(C)C)c3nc(-c4c(O)cccc4F)c(F)cc23)C(C)C1 (centres undefined)
viability, T/C (compound 0.0316 µM): 107% and 92.8% and 91.6% | viability, T/C (compound 0.1 µM): 89.2% and 119% and 77.8% | viability, T/C (compound 0.316 µM): 102% and 80.8% and 89% | viability, T/C (compound 1 µM): 96.7% and 101% and 87.3% | viability, T/C (compound 3.16 µM): 98.4% and 92.5% and 85.8% | viability, T/C (compound 10 µM): 91.2% and 93.1% and 84.2%

IC50 (curve of compound): 2.38 µM and > 10 µM
Structure (SMILES): CC(C)(O)C1CCC(Nc2ccc3ncc(-c4cccc(C(F)(F)F)c4)n3n2)CC1 (centres undefined)
viability, T/C (compound 0.0316 µM): 82.3% and 80.4% and 95.8% | viability, T/C (compound 0.1 µM): 73.1% and 79.5% and 84.1% | viability, T/C (compound 0.316 µM): 72.7% and 86.8% and 87.8% | viability, T/C (compound 1 µM): 62.9% and 60.6% and 73.3% | viability, T/C (compound 3.16 µM): 43.8% and 49.5% and 61% | viability, T/C (compound 10 µM): 45.6% and 63.7% and 54.7%

IC50 (curve of compound): > 10 µM and 7.41 µM
Structure (SMILES): CC1COCCN1c1cc(-c2ccnn2C)c2ccnc(-c3ccn[nH]3)c2n1 (centres undefined)
viability, T/C (compound 0.0316 µM): 99.9% and 85.8% and 70.3% | viability, T/C (compound 0.1 µM): 85.9% and 83.5% and 72.1% | viability, T/C (compound 0.316 µM): 83.8% and 82.2% and 60.7% | viability, T/C (compound 1 µM): 68.7% and 82.9% and 70.1% | viability, T/C (compound 3.16 µM): 77.7% and 57.3% and 56.7% | viability, T/C (compound 10 µM): 58.9% and 53.9% and 47.2%

IC50 (curve of compound): > 10 µM
Structure (SMILES): CC1COCCN1c1cc(C2(S(C)(=N)=O)CC2)nc(-c2ccnc3[nH]ccc23)n1 (centres undefined)
viability, T/C (compound 0.0316 µM): 103% (2×) and 89.1% | viability, T/C (compound 0.1 µM): 92.5% and 89% and 63% | viability, T/C (compound 0.316 µM): 96.4% and 75.8% and 79.6% | viability, T/C (compound 1 µM): 93.7% and 76% and 77.1% | viability, T/C (compound 3.16 µM): 89.8% and 75.2% and 74.9% | viability, T/C (compound 10 µM): 68.3% and 69.6% and 60.1%

IC50 (curve of compound): > 10 µM
Structure (SMILES): CCCS(=O)(=O)Nc1ccc(F)c(C(=O)c2c[nH]c3ncc(-c4ccc(Cl)cc4)cc23)c1F
viability, T/C (compound 0.0316 µM): 85% and 77.1% and 99.3% | viability, T/C (compound 0.1 µM): 91.3% and 96.2% and 84.7% | viability, T/C (compound 0.316 µM): 85.8% and 98.6% and 111% | viability, T/C (compound 1 µM): 97.5% and 83.7% and 96.3% | viability, T/C (compound 3.16 µM): 79.2% and 91% and 121% | viability, T/C (compound 10 µM): 56.8% and 59.4% and 76.4%

IC50 (curve of compound): > 0.316 µM
Structure (SMILES): CCc1c2c(nc3ccc(O)cc13)-c1cc3c(c(=O)n1C2)COC(=O)[C@]3(O)CC
viability, T/C (compound 0.000999 µM): 98.6% and 89.7% and 104% | viability, T/C (compound 0.00316 µM): 93.7% and 94.5% and 92.8% | viability, T/C (compound 0.00999 µM): 120% and 88.8% and 82.7% | viability, T/C (compound 0.0316 µM): 89.3% and 117% and 90.7% | viability, T/C (compound 0.0999 µM): 98.1% and 103% and 110% | viability, T/C (compound 0.316 µM): 92.2% and 108% and 95.1%
